Measured values reported in ChEMBL document CHEMBL5727708, “Spiro-condensed pyrrolidine derivatives as deubiquitylating enzymes (DUB) inhibitors” (2020).

Biological target: T1, OTU domain-containing protein 7B (Homo sapiens, UniProt Q6GQQ9)
T1 sequence (Q6GQQ9 whole entry): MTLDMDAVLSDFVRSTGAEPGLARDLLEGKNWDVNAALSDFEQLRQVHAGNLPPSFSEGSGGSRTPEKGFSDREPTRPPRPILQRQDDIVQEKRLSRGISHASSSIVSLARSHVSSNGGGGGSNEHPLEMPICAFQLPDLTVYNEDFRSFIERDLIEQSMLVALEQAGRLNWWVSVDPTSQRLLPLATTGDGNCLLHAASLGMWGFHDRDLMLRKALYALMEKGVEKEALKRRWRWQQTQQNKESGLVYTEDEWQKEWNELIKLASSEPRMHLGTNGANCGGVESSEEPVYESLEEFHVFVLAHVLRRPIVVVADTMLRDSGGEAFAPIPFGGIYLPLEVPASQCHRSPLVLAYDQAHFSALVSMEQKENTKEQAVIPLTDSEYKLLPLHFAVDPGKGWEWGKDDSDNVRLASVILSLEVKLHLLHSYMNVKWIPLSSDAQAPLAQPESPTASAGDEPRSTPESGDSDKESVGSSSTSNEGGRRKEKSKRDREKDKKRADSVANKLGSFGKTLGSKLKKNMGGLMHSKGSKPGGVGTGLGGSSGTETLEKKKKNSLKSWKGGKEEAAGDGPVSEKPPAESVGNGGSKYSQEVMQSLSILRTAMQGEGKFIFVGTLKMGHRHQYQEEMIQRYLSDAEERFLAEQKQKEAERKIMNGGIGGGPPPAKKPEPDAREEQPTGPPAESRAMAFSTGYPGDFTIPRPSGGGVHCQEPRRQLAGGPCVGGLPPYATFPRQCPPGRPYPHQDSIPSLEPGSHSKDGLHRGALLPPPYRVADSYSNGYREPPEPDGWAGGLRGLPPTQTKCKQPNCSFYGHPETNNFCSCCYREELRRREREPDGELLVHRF
Experiment: Biochemical Assay: Dilution plates were prepared at 21 times the final concentration (2100 μM for a final concentration of 100 μM) in 50% DMSO in a 96-well polypropylene V-bottom plate (Greiner #651201). A typical 8-point dilution series to be 100, 30, 10, 3, 1, 0.3, 0.1, 0.03 μM final. Reactions were performed in duplicate in black 384 well plates (small volume, Greiner 784076) in a final reaction volume of 21 μl. Either 1 μl of 50% DMSO or diluted compound was added to the plate. Cezanne 1 was diluted in reaction buffer (40 mM Tris, pH 7.5, 0.005% Tween 20, 0.5 mg/ml BSA, 5 mM-beta-mercaptoethanol) to the equivalent of 0.005 μl/well and 10 μl of diluted Cezanne 1 was added to the compound. Enzyme and compound were incubated for 30 min at room temp. Reactions were initiated by the addition of 50 nM of TAMRA labelled peptide linked to ubiquitin via an iso-peptide bond as fluorescence polarisation substrate. Reactions were read immediately after addition of substrate and following a 2 hr incubation at room temperature. Readings were performed on a Pherastar Plus. λ Excitation 540 nm; λ Emission 590 nm.

Compound: Cc1ccc2[nH]ncc2c1-c1cnc2c(c1)NC(=O)C1(CCN(C#N)C1)N2 (stereo unspecified)
- IC50: < 100 nM
